Experimental data from patent publication US20260042771A1, “HETEROCYCLIC COMPOUND FOR INDUCING DEGRADATION OF G12V MUTANT KRAS PROTEIN” (Astellas Pharma Inc., priority 2022, published 2026).

System: human KRAS G12V mutant-positive pancreatic cancer line PA-TU-8902
Assay: Test Example 3: non-anchorage-dependent cell growth inhibition, spheroid 3D culture
Assay type: cell-based
Settings: PaTu 8902, 144 h, PA-TU-8902 spheroid 3D culture, 6 days, CellTiter Glo 2.0
Method: Test Example 3: Evaluation of Non-Anchorage-Dependent Cell Growth Inhibitory Effect on Human KRAS G12V Mutant-Positive Pancreatic Cancer Line PA-TU-8902
The non-anchorage-dependent cell growth inhibitory effect of test compounds was evaluated by spheroid 3D cell culture.
PA-TU-8902 cells were seeded on low-cell-adhesive round bottom 384-well plates (PrimeSurface: from Sumitomo Bakelite) at 36 µL/well to give 5×10^2 cells per well. The cell culture was performed under the same conditions as in Test Example 1.
The next day, the test compounds (8 to 10 points having final concentrations in the range of 3 μM to 0.1 nM) and DMSO, which was the solvent for the test compounds, as a negative control were diluted 100-fold with a fresh medium and were added at 4 μL per well. After culturing in the presence of 5% CO2 at 37° C. for 6 days, CellTiter Glo 2.0 (from Promega) was added at 20 μL per well. After stirring with a plate mixer (from FINEPCR) at normal temperature for 1 hour, the luminescent signals were measured with ARVO X3 (from PerkinElmer).
With the signaling value in treatment with DMSO taken as 0% inhibition and with the signaling value in the medium alone without cells taken as 100% inhibition, the 50% inhibitory concentration values (IC50) were calculated by Sigmoid-Emax nonlinear regression analysis. The inhibition rate at 30 nM was calculated for Example No. 17.

Row | Compound | IC50 [nM]
1 | Cc1c(F)cc2[nH]ncc2c1-c1c(C2CC2)cc2c(N3CC(C#N)C3)nc(OC3CCOCC3)nc2c1OCc1ccc(C(=O)N2CCN(Cc3ccc4c(N5CCC(=O)NC5=O)nn(C)c4c3)C[C@@H]2C)cc1 (atropisomer, axis not shown) [Example 21] | 11
2 | CO[C@@H](C)COc1nc(N2CC(C#N)C2)c2cc(C3CC3)c(-c3c(C)c(F)cc4[nH]ncc34)c(OCc3ccc(C(=O)N4CCC5(CCN(CCOc6cccc(N7CCC(=O)NC7=O)c6)CC5)CC4)cc3)c2n1 (atropisomer, axis not shown) [Example 22] | 5
